This is an account of results in patent US11396453B2, “Metal compound having phase transformation and method of preparing the same” (WEBIOTREE CO., LTD, priority 2020, dated 2022).

The nature of series [1]: Dispersibility evaluation: transmission through PVDF 0.45 μm filter in pH 4.5 buffer, measured by HPLC. The class given is physicochemical. To be noted: 38° C. The procedure: Confirmation Experiment by Difference in Particle Size and Concentration in Weakly Acidic Solvent of Metal Phase Transformation Compound and Peptide (PalGHK)
PVDF 0.45 μm filter is used
Measurement is performed using HPLC with stirring for 24 hours.
Temperature conditions similar to the temperature inside the body (38° C.) is maintained
The solvent is the same as the pH 4.5 buffer, and experiment is performed at 500 or 1000 ppm based on the peptide content of the sample raw material.
Concentration is calculated based on the peptide content (approximately 71%) in the metal compound.
Concentration is calculated based on the peptide content (about 83%) in the peptide (palGHK).

The nature of series [2]: Particle size by DLS (Zetasizer Nano ZS90). The class given is physicochemical. To be noted: dispersant water, 25° C. The procedure: Instrument: Zetasizer Nano ZS90
The particle size of the powder was measured by Zetasizer of Malvern Panalytical Ltd. (UK) using […], and the particle size was measured after dispersing the sample in tertiary distilled water using the model name NANO ZS ZS90.

As to palmitoyl-GHK [palGHK], the “dispersibility (filter transmission)” value in series [1] (500 ppm based on peptide content, time 0 hr) came to 0%; in series [1] (500 ppm based on peptide content, time 2 hr), 21.3%; in series [1] (500 ppm based on peptide content, time 4 hr) it was 27.4%; in series [1] (500 ppm based on peptide content, time 6 hr), 37.6%; in series [1] (500 ppm based on peptide content, time 8 hr) it was 39.8%; in series [1] (500 ppm based on peptide content, time 10 hr), 37.8%. Moreover, the “dispersibility (filter transmission)” value in series [1] (500 ppm based on peptide content, time 12 hr) was 35.6%; in series [1] (500 ppm based on peptide content, time 12 hr, listed as peptide), “about 35%”; in series [1] (1000 ppm based on peptide content, time 0 hr), 0%; in series [1] (1000 ppm based on peptide content, time 2 hr), 18.7%; in series [1] (1000 ppm based on peptide content, time 4 hr), 27.8%; in series [1] (1000 ppm based on peptide content, time 6 hr) it was 33.2%. Moreover, the “dispersibility (filter transmission)” value was 42.9% in series [1] (1000 ppm based on peptide content, time 8 hr); 47.8% in series [1] (1000 ppm based on peptide content, time 10 hr); 47.8% in series [1] (1000 ppm based on peptide content, time 12 hr); “about 47%” in series [1] (1000 ppm based on peptide content, time 12 hr, listed as peptide). Moreover, the “average size (DLS) of transmitted particles” value in series [2] (500 ppm) was 13.09 nm; in series [2] (1000 ppm), 12.18 nm.
